Laboratory results reported in US9676721B2, “Compounds and compositions for the inhibition of NAMPT” (FORMA TM, LLC, priority 2010, dated 2017).

Experiments:
HepG2 cells = settings: cited from earlier work
[1] = test system: murine renal cell carcinoma; settings: cited from earlier work
mouse mammary carcinoma = mouse mammary carcinoma model; cited from earlier work
THP-1 leukemia cell line = settings: cited from earlier work
K562 leukemia cell line = settings: cited from earlier work
NAMPT = NAMPT (Homo sapiens (Human), UniProt P43490); assay: Biochemical Inhibition Assay (NAMPT enzymatic reaction, NMN by mass spectrometry); settings: recombinant His-tagged NAMPT 33 nM, 1 μM NAM, 30 minutes; read-out: Biochem IC50
In short: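 His-tagged human NAMPT from E. coli in 50 mM Hepes pH 7.5, 50 mM NaCl, 5 mM MgCl2, 1 mM THP. Product NMN quantified by RapidFire ESI mass spectrometry, normalised to L-cystathionine internal control and background-subtracted; % inhibition converted to IC50.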

A2780 cells [2] = assay: In-Vitro Cell Proliferation Assay (SRB); assay type: cell-based; settings: Homo sapiens, A2780, 72 h
In short: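 A2780 cells treated 72 h at 37 °C, 5% CO2 with serially diluted compound, 0.1% DMSO final. Viable cells by sulforhodamine B staining after TCA fixation, absorbance 570 nm, background-subtracted for % inhibition and IC50; specificity checked by co-addition of NAM or NMN.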

A2780 cells [3] = assay: In Vivo Xenograft Studies; settings: A2780 xenograft in C.B-17 scid mice, p.o. BID for 5 or 10 days
Protocol: In Vivo Xenograft Studies: […] The compounds were formulated in 60:30:10 PEG-400:D5W: Ethanol and administered p.o., at the dose volume of 10 ml/kg BID for a duration of 5 or 10 days. The dose used for efficacy was selected from the MTD (Maximum Tolerated Dose) study. Mice were weighed and tumors measured using vernier calipers every alternate day. Tumor volume was calculated according to the formula (length×width^2)/2. All animal work was approved by the Institutional Animal Care and Use Committee of Biological Resource Centre, Singapore.

tumor cell lines = settings: broad range of tumor cell lines; cited from earlier work

Sequence of NAMPT (P43490 whole entry): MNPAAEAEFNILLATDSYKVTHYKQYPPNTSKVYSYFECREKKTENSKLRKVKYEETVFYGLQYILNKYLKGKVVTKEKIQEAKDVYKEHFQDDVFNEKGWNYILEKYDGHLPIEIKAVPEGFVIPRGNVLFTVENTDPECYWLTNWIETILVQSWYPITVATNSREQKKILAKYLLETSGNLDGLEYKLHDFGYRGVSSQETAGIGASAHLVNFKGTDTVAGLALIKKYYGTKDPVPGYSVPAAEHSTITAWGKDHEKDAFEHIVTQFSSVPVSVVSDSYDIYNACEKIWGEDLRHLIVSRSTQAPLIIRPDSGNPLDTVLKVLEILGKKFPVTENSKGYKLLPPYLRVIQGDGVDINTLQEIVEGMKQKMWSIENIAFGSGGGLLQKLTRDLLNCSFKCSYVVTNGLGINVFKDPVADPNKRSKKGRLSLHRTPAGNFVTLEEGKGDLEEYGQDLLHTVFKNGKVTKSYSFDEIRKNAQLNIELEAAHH

SMILES	IC50 (NAMPT) [nM]	IC50 (A2780 cells [2]) [nM]	further results
O=C(/C=C/c1cccnc1)NCCCCC1CCN(C(=O)c2ccccc2)CC1 [FK866, (E)-N-[4-(1-benzoylpiperidin-4-yl)butyl]-3-(pyridine-3-yl)-acrylamide]			apoptosis (HepG2 cells): induces apoptosis; activities in tumor model [1]: anti-tumor, antimetastatic, and anti-angiogenic activities; tumor growth (mouse mammary carcinoma): induces a delay in tumor growth; effect on MNNG-induced cell death (THP-1 leukemia cell line): chemosensitizing effect; effect on MNNG-induced cell death (K562 leukemia cell line): chemosensitizing effect
N#CN=C(NCc1ccc(S(=O)(=O)c2ccc(Cl)c(F)c2)cc1)Nc1ccncc1 [1-({4-[(4-chloro-3-fluorobenzene)sulfonyl]phenyl}methyl)-2-cyano-3-(pyridin-4-yl)guanidine]	2	1.9	
N#C/N=C(\NCc1ccc(S(=O)(=O)c2ccccc2)cc1)NCc1cccnc1 [(E)-3-{[4-(benzenesulfonyl)phenyl]methyl}-2-cyano-1-(pyridin-3-ylmethyl)guanidine]	17	678	
CC(C)Oc1ccc(S(=O)(=O)c2ccc(CNC(=NC#N)Nc3ccncc3)cc2)cc1 [2-cyano-1-[(4-{[4-(propan-2-yloxy)benzene]sulfonyl}phenyl)methyl]-3-(pyridin-4-yl)guanidine]	2.6	1.5	
CS(=O)(=O)c1ccc(S(=O)(=O)c2ccc(CNC(=NC#N)Nc3ccncc3)cc2)cc1 [2-cyano-1-({4-[(4-methanesulfonylbenzene)sulfonyl]phenyl}methyl)-3-(pyridin-4-yl)guanidine]	4.5	13.1	
Cc1ccc(S(=O)(=O)c2ccc(CNC(=NC#N)Nc3ccncc3)cc2)cc1F [2-cyano-1-({4-[(3-fluoro-4-methylbenzene)sulfonyl]phenyl}methyl)-3-(pyridin-4-yl)guanidine]	14.8	6.2	
CNC(=O)c1ccc(S(=O)(=O)c2ccc(CNC(=NC#N)Nc3ccncc3)cc2)cn1 [5-[(4-{[2-cyano-3-(pyridin-4-yl)carbamimidamido]methyl}benzene)sulfonyl]-N-methylpyridine-2-carboxamide]	6.5	27.8	
N#CN=C(NCc1ccc(S(=O)(=O)c2ccccc2CN2CCOCC2)cc1)Nc1ccncc1 [2-cyano-1-[(4-{[2-(morpholin-4-ylmethyl)benzene]sulfonyl}phenyl)methyl]-3-(pyridin-4-yl)guanidine]	11.7	7.5	
N#CN=C(NCc1ccc(S(=O)(=O)c2ccc3c(c2)OCO3)cc1)Nc1ccncc1 [1-{[4-(2H-1,3-benzodioxole-5-sulfonyl)phenyl]methyl}-2-cyano-3-(pyridin-4-yl)guanidine]	1.8	3.3	
N#CN=C(NCc1ccc(S(=O)(=O)c2cccc(C#N)c2)cc1)Nc1ccncc1 [2-cyano-1-({4-[(3-cyanobenzene)sulfonyl]phenyl}methyl)-3-(pyridin-4-yl)guanidine]	1.7	6.2	
Cc1cc(Cl)cc(S(=O)(=O)c2ccc(CNC(=NC#N)Nc3ccncc3)cc2)c1 [1-({4-[(3-chloro-5-methylbenzene)sulfonyl]phenyl}methyl)-2-cyano-3-(pyridin-4-yl)guanidine]	3.3	1.6	
N#CN=C(NCc1ccc(S(=O)(=O)c2ccc(C#N)cc2)cc1)Nc1ccncc1 [2-cyano-1-({4-[(4-cyanobenzene)sulfonyl]phenyl}methyl)-3-(pyridin-4-yl)guanidine]	5.9	13.7	
CCOc1ccccc1S(=O)(=O)c1ccc(CNC(=NC#N)Nc2ccncc2)cc1 [2-cyano-1-({4-[(2-ethoxybenzene)sulfonyl]phenyl}methyl)-3-(pyridin-4-yl)guanidine]	7.1	3.5	effect on tumor growth (A2780 cells [3]): delayed tumor growth
N#CN=C(NCc1ccc(S(=O)(=O)c2cnc3ccccc3c2)cc1)Nc1ccncc1 [2-cyano-3-(pyridin-4-yl)-1-{[4-(quinoline-3-sulfonyl)phenyl]methyl}guanidine]	1	1.8	
N#CN=C(NCc1ccc(S(=O)(=O)c2cc(F)cc(C(F)(F)F)c2)cc1)Nc1ccncc1 [2-cyano-1-[(4-{[3-fluoro-5-(trifluoromethyl)benzene]sulfonyl}phenyl)methyl]-3-(pyridin-4-yl)guanidine]	6	1.5	
CCNC(=O)c1ccc(S(=O)(=O)c2ccc(CNC(=NC#N)Nc3ccncc3)cc2)cc1 [4-[(4-{[2-cyano-3-(pyridin-4-yl)carbamimidamido]methyl}benzene)sulfonyl]-N-ethylbenzamide]	6.5	65.8	
CC(C)c1cccc(S(=O)(=O)c2ccc(CNC(=NC#N)Nc3ccncc3)cc2)c1 [2-cyano-1-[(4-{[3-(propan-2-yl)benzene]sulfonyl}phenyl)methyl]-3-(pyridin-4-yl)guanidine]	2.9	1.1	
COc1ccc(C(C)C)cc1S(=O)(=O)c1ccc(CNC(=NC#N)Nc2ccncc2)cc1 [2-cyano-1-[(4-{[2-methoxy-5-(propan-2-yl)benzene]sulfonyl}phenyl)methyl]-3-(pyridin-4-yl)guanidine]	5.3	3.5	
N#C/N=C(\NCCCCCCOc1ccc(Cl)cc1)Nc1ccncc1 [CHS-828]			cell growth (tumor cell lines): potently inhibits cell growth
Cc1ccccc1S(=O)(=O)c1ccc(CNC(=NC#N)Nc2ccncc2)cc1 [2-cyano-1-({4-[(2-methylbenzene)sulfonyl]phenyl}methyl)-3-(pyridin-4-yl)guanidine]	7.9	5.6	
CC(C)Oc1cccc(S(=O)(=O)c2ccc(CNC(=NC#N)Nc3ccncc3)cc2)c1 [2-cyano-1-[(4-{[3-(propan-2-yloxy)benzene]sulfonyl}phenyl)methyl]-3-(pyridin-4-yl)guanidine]	3.2	5.7	
N#CN=C(NCc1ccc(S(=O)(=O)c2cccc(C(=O)NC3CC3)c2)cc1)Nc1ccncc1 [3-[(4-{[2-cyano-3-(pyridin-4-yl)carbamimidamido]methyl}benzene)sulfonyl]-N-cyclopropylbenzamide]	2.2	20	
COc1ccccc1S(=O)(=O)c1ccc(CNC(=NC#N)Nc2ccncc2)cc1 [2-cyano-1-({4-[(2-methoxybenzene)sulfonyl]phenyl}methyl)-3-(pyridin-4-yl)guanidine]	7.2	3.9	
Cc1cccc(S(=O)(=O)c2ccc(CNC(=NC#N)Nc3ccncc3)cc2)c1 [2-cyano-1-({4-[(3-methylbenzene)sulfonyl]phenyl}methyl)-3-(pyridin-4-yl)guanidine]	5.2	4.6	
CCNC(=O)c1cccc(S(=O)(=O)c2ccc(CNC(=NC#N)Nc3ccncc3)cc2)c1 [3-[(4-{[2-cyano-3-(pyridin-4-yl)carbamimidamido]methyl}benzene)sulfonyl]-N-ethylbenzamide]	5.4	27	
N#CN=C(NCc1ccc(S(=O)(=O)c2cccc(C(F)(F)F)c2)cc1)Nc1ccncc1 [2-cyano-3-(pyridin-4-yl)-1-[(4-{[3-(trifluoromethyl)benzene]sulfonyl}phenyl)methyl]guanidine]	2.5	1.2	
